Experimental data taken from patent US9434753B2, “Modified creatine compounds” (Gencia Corporation, priority 2011, dated 2016).
Entries after “also recorded” stand apart in the source; their conditions may differ.

Experiments:
fibroblasts = experiment: Oxygen consumption rate (OCR), XF24 extracellular flux analyzer, fibroblasts; assay type: cell-based; settings: 5 nM to 500 nM, within thirty minutes of treatment, compared to 10 μM unmodified creatine
Description: In this assay, an XF24 extracellular flux analyzer (Seahorse Bioscience, North Billerica, Mass.) was used to measure mitochondrial oxygen consumption in intact cells. The XF24 analyzer creates a transient 7 μl chamber in specialized microplates that allows determination of oxygen and proton concentrations in real time through the measurement of oxygen sensitive dyes by the XF24 instrument. 24 hours prior to OCR measurement, fibroblasts were seeded into 20 wells of the 24 well tissue culture plate while 1 ml of XF Calibrant solution (Seahorse Bioscience, North Billerica, Mass.) was added to each well of a 24 well dual-analyte sensor cartridge (Seahorse Bioscience, North Billerica, Mass.). The sensor cartridge repositioned on the 24 well calibration plate, and the plate was incubated overnight at 37° C. without additional CO2. The day of the experiment, the injection ports on the sensor cartridge were loaded with compound 1 or creatine as indicated at 10× concentrations and placed into the XF24 Flux Analyzer for automated calibration. During the sensor calibration, cells in each of the tissue culture well were rinsed once in 1 mL of unbuffered media. 675 μL of unbuffered media was then added to each well, and the plate was incubated for an hour in the absence of additional CO2. Plates were subsequently placed into the calibrated seahorse XF24 flux analyzer for bioenergetic analysis. […]

[1] = test system: recombinant CPK (Native Human Creatine Kinase); experiment: Determination of CPK activity (ATP hydrolysis/consumption, luciferase); assay type: biochemical; settings: 5 mM compound or creatine, 1 mM ATP, CPK 10 units/well, compound 1 compared with equimolar creatine
Description: Disclosed herein is an in vitro assay for determining the activity of recombinant CPK on the modified creatine compounds. Recombinant CPK is mixed with ATP and a modified creatine compound of interest. ATP hydrolysis, a measure of the rate of transfer of the gamma phosphate from ATP to the guanidinium groups of the creatine subunit, was measured using luciferase. The rate of ATP hydrolysis/consumption for the modified creatine compound is then compared to the rate of ATP hydrolysis/consumption for creatine. An in vitro assay was performed to determine the activity of recombinant CPK on the modified creatine compounds (CK, Native Human Creatine Kinase from Cell Sciences Catalog No: CSI14786B). Recombinant CPK (10 units/well) is mixed with 1 mM ATP and the compound of example 1 (compound 1) at varying concentrations (5 mM, 2.5 mM, and 1 mM) or creatine (5 mM). ATP hydrolysis; a measure of the rate of transfer of the gamma phosphate from ATP to the guanidinium groups of the creatine subunit was then measured for each sample using luciferase. Luciferase is then added (GLO kit from Promega) according to manufacturer instructions. As ATP is consumed, light is emitted. Every 2 minutes we collected the emitted light in our plate reader in lumens. The data is collected over 30 minutes to generate a slope. The slope is a measure of ATP consumption. […]

Complex I = Complex I (CI) activity microplate assay in treated fibroblasts; assay type: cell-based; settings: 25 nM, within thirty minutes, compared to 10 μM unmodified creatine
Description: Complex I activity was determined using a CI microplate assay (MS 141) from MitoSciences (Eugene, Oreg.) according to the manufacturer's protocol. Fibroblasts were plated in T75 flasks. 24 hours after plating, the cells were treated with various concentrations of compound of example 1 in media for 30 min. The cells were then lysed, and the mitochondria were isolated using reagents provided in the CI assay kit according to the manufacturer's protocol. After determination of the protein concentrations, 20 μg of the purified mitochondria in a total volume of 200 μl was added in quadruplicate to the 96-well microplate and the CI enzyme was immunocaptured within the wells. CI activity was measured colorimetrically with a PHERAstar FS (BMG LABTECH Inc, Cary, N.C., USA) as a change in the absorbance following the oxidation of NADH to NAD+ and the simultaneous reduction of a dye which leads to increased absorbance at 450 nm over time (0-105 min). The average±SD of the quadruplicate values for each time point and treatment group were graphed, and the rate of CI activity was determined by the initial slope (i.e., values in the linear range from 20 to 50 min), expressed as change in optical density per minute.

[2] = test system: HepG2 human liver carcinoma cells; experiment: Oxygen consumption rate (OCR) in HepG2 cells; assay type: cell-based; settings: control is 100
Description: In this assay, an XF24 extracellular flux analyzer (Seahorse Bioscience, North Billerica, Mass.) was used to measure mitochondrial oxygen consumption in intact cells. The XF24 analyzer creates a transient 7 μl chamber in specialized microplates that allows determination of oxygen and proton concentrations in real time through the measurement of oxygen sensitive dyes by the XF24 instrument. 24 hours prior to OCR measurement, fibroblasts were seeded into 20 wells of the 24 well tissue culture plate while 1 ml of XF Calibrant solution (Seahorse Bioscience, North Billerica, Mass.) was added to each well of a 24 well dual-analyte sensor cartridge (Seahorse Bioscience, North Billerica, Mass.). The sensor cartridge repositioned on the 24 well calibration plate, and the plate was incubated overnight at 37° C. without additional CO2.
The day of the experiment, the injection ports on the sensor cartridge were loaded with compound 1 or creatine as indicated at 10× concentrations and placed into the XF24 Flux Analyzer for automated calibration. During the sensor calibration, cells in each of the tissue culture well were rinsed once in 1 mL of unbuffered media. 675 μL of unbuffered media was then added to each well, and the plate was incubated for an hour in the absence of additional CO2. Plates were subsequently placed into the calibrated seahorse XF24 flux analyzer for bioenergetic analysis. An equivalent number of cells per well are plated using a cell counter. Further normalization is achieved by taking baseline measurements of OCR on a well-by-well basis, and the increase observed is a comparison to the same well prior to treatment. Thus each well serves as its own control.
Using the same procedure, the oxygen consumption rate (OCR) for additional compounds were measure in HepG2 human liver carcinoma cells. Compounds were added in concentrations ranging from 0.25 nM to 200 nM.

## CN(CC(=O)NCCC[P+](c1ccccc1)(c1ccccc1)c1ccccc1)C(=N)N [Example 1, N^2-[ammonio(imino)methyl]-N^2-methyl-N-[3-(triphenylphosphonio)propyl]glycinamide bis(trifluoroacetate)]
fibroblasts
  oxygen consumption rate: significant increase in oxygen consumption rate
[1]; bis(trifluoroacetate)
  rate of ATP hydrolysis/consumption: higher rate of ATP hydrolysis/consumption relative to creatine; also recorded: significantly higher rate of ATP hydrolysis/consumption than creatine
Complex I
  Complex I activity (change in optical density per minute): significant increase in Complex I activity
[2]; 10 nM
  OCR: 124%

## CN(CC(=O)N(C)CCC[P+](c1ccccc1)(c1ccccc1)c1ccccc1)C(=N)N [Example 2, N^2-[ammonio(imino)methyl]-N,N^2-dimethyl-N-[3-(triphenylphosphonio)propyl]glycinamide bis(trifluoroacetate)]
[2]; 10 nM
  OCR: 106%

## CN(CCC(=O)NCCCC[P+](c1ccccc1)(c1ccccc1)c1ccccc1)C(=N)N.O=C(O)C(F)(F)F.O=C([O-])C(F)(F)F [Example 5, N^3-[ammonio(imino)methyl]-N^3-methyl-N-[4-(triphenylphosphonio)butyl]-O-alaninamide bis(trifluoroacetate)]
[2]; 10 nM
  OCR: 117.9%

## CN(CCCC(=O)NCCCC[P+](c1ccccc1)(c1ccccc1)c1ccccc1)C(=N)N.O=C(O)C(F)(F)F.O=C([O-])C(F)(F)F [Example 6, {4-[(4-{[ammonio(imino)methyl](methyl)amino}butanoyl)amino]butyl}(triphenyl)phosphonium bis(trifluoroacetate)]
[2]; 0.25 nM
  OCR: 121%

## CN(CCC(C)(C)C(=O)NCCCC[P+](c1ccccc1)(c1ccccc1)c1ccccc1)C(=N)N.O=C(O)C(F)(F)F.O=C([O-])C(F)(F)F [Example 7, {4-[(4-{[ammonio(imino)methyl](methyl)amino}-2,2-dimethylbutanoyl)amino]butyl}(triphenyl)phosphonium bis(trifluoroacetate)]
[2]; 20 nM
  OCR: 112%

## CN(CC1(C(=O)NCCC[P+](c2ccccc2)(c2ccccc2)c2ccccc2)CC1)C(=N)N.O=C(O)C(F)(F)F.O=C([O-])C(F)(F)F [Example 8, [3-({[1-({[ammonio(imino)methyl](methyl)amino}methyl)cyclopropyl]carbonyl}amino)propyl](triphenyl)phosphonium bis(trifluoroacetate)]
[2]; 2.5 nM
  OCR: 115.7%

## CN(CC1(C(=O)NCCC[P+](c2ccccc2)(c2ccccc2)c2ccccc2)CCOCC1)C(=N)N.O=C(O)C(F)(F)F.O=C([O-])C(F)(F)F [Example 9, [3-({[4-({[ammonio(imino)methyl](methyl)amino}methyl)tetrahydro-2H-pyran-4-yl]carbonyl}amino)propyl](triphenyl)phosphonium bis(trifluoroacetate)]
[2]; 2.5 nM
  OCR: 121.9%

## CN(CC(=O)O)C(=N)N [creatine, 2-(carbamimidoyl-methyl-amino) acetic acid]
[1]
  rate of ATP hydrolysis/consumption: increase in ATP hydrolysis/consumption
